Experimental data as given in ChEMBL document CHEMBL3734667 (Bioorg Med Chem, 2015).

What was measured:
[1] = Cytotoxicity against african green monkey Vero 76 cells assessed as cell viability after 48 to 96 hrs by crystal violet staining method; format: cell-based; details: chlorocebus sabaeus
[2] = Cytotoxicity against MDBK cells assessed as cell viability after 48 to 96 hrs by MTT assay; format: cell-based, Bos taurus; details: cattle
[3] = Selectivity index, ratio of CC50 for african green monkey Vero76 cells to EC50 for human RSV; parameters: species or system human respiratory syncytial virus, Vero 76
[4] = system: Human immunodeficiency virus 1; test: Antiviral activity against HIV-1 infected in MT4 cells assessed as inhibition of virus-induced cytopathogenicity after 4 days by MTT assay; format: functional, organism-based; details: Human immunodeficiency virus 1, MT4, 96 h
Human orthopneumovirus = test: Antiviral activity against human RSV infected in african green monkey Vero76 cells assessed as inhibition of virus-induced cytopathogenicity after 5 days by plaque reduction assay; format: functional, organism-based; details: human respiratory syncytial virus, Vero 76, 120 h
[5] = Cytotoxicity against BHK cells assessed as cell viability after 48 to 96 hrs by MTT assay; format: cell-based, Mesocricetus auratus; details: hamster
Vaccinia virus = test: Antiviral activity against Vaccinia virus; format: functional, organism-based; details: Orthopoxvirus vaccinia
[6] = system: Vesicular stomatitis virus; test: Antiviral activity against VSV; format: functional, organism-based
[7] = system: Bovine viral diarrhea virus 1; test: Antiviral activity against BVDV infected in MDBK cells assessed as inhibition of virus-induced cytopathogenicity after 3 to 4 days by MTT assay; format: functional, organism-based; details: Bovine viral diarrhea virus isolates and strains
[8] = Cytotoxicity against human MT4 cells assessed as cell viability after 96 hrs by MTT assay; format: cell-based
Yellow fever virus = test: Antiviral activity against YFV infected in BHK-21 cells assessed as inhibition of virus-induced cytopathogenicity after 3 to 4 days by MTT assay; format: functional, organism-based
Poliovirus 1 = test: Antiviral activity against Human poliovirus 1 Sabin infected in african green monkey Vero76 cells assessed as inhibition of virus-induced cytopathogenicity by plaque reduction assay; format: functional, organism-based; details: Enterovirus C, Vero 76
Coxsackievirus B5 = test: Antiviral activity against human CVB5 infected in african green monkey Vero76 cells assessed as inhibition of virus-induced cytopathogenicity after 3 days by plaque reduction assay; format: functional, organism-based; details: Enterovirus B, Vero 76, 72 h
[9] = Selectivity index, ratio of CC50 for african green monkey Vero76 cells to EC50 for human CVB5; parameters: species or system Coxsackievirus B5, Vero 76
[10] = system: Mammalian orthoreovirus 1; test: Antiviral activity against Reo-1 virus infected in BHK-21 cells assessed as inhibition of virus-induced cytopathogenicity after 3 to 4 days by MTT assay; format: functional, cell-based; details: Mammalian orthoreovirus 1, BHK-21
Human alphaherpesvirus 1 = test: Antiviral activity against HSV1; format: functional, organism-based
[11] = Selectivity index, ratio of CC50 for MDBK cells to EC50 for BVDV; parameters: species or system Bovine viral diarrhea virus 1

Structure (SMILES) | CC50 [1] [µM] | CC50 [2] [µM] | Ratio CC50/EC50 [3] | EC50 [4] [µM] | EC50 (Human orthopneumovirus) [µM] | CC50 [5] [µM] | EC50 (Vaccinia virus) [µM] | EC50 [6] [µM] | EC50 [7] [µM] | CC50 at 96 h [8] [µM] | EC50 (Yellow fever virus) [µM] | EC50 (Poliovirus 1) [µM] | EC50 (Coxsackievirus B5) [µM] | Ratio CC50/EC50 [9] | EC50 [10] [µM] | EC50 (Human alphaherpesvirus 1) [µM] | Ratio CC50/EC50 [11]
CC(C)(Oc1ccc(-n2nc3ccc(Cl)cc3n2)cc1)C(=O)O | 70 | ≥ 100 | 2.8 | > 100 | 25 | 75 | > 100 | > 100 | > 100 | > 100 | > 100 | > 100 | > 100 | – | – | – | –
COc1ccccc1N1CCN(CCCOc2ccc(-n3nc4ccc(C(F)(F)F)cc4n3)cc2)CC1 | 100 | > 100 | – | > 100 | > 100 | > 100 | > 100 | > 100 | > 100 | 100 | > 100 | > 100 | 53 | 1.89 | > 100 | – | –
CC(C)(Oc1ccc(-n2nc3ccccc3n2)cc1)C(=O)O | ≥ 100 | > 100 | 1.25 | > 100 | 80 | > 100 | > 100 | > 100 | > 100 | > 100 | > 100 | > 100 | > 100 | – | – | – | –
Cc1ccc2nn(-c3ccc(OCC(C)(C)C(=O)O)cc3)nc2c1 | 60 | 69 | 4 | > 100 | 15 | ≥ 100 | > 100 | > 100 | > 100 | ≥ 100 | > 100 | > 100 | 5 | 12 | – | – | –
NC(=O)c1ncn([C@@H]2O[C@H](CO)[C@@H](O)[C@H]2O)n1 [RIBAVIRIN] | > 100 | > 100 | >14.3 | – | 7 | > 100 | > 100 | > 100 | – | – | > 100 | > 100 | > 100 | – | > 100 | > 100 | –
[O-][n+]1c2cc(C(F)(F)F)ccc2nn1-c1ccc(O)cc1 | > 100 | 72 | >2.5 | > 100 | 40 | > 100 | > 100 | > 100 | > 100 | > 100 | > 100 | > 100 | 75 | >1.33 | > 100 | – | –
Clc1c(Cl)c(Cl)c2nn(C3CCCO3)nc2c1Cl (stereo not drawn) | 12 | ≥ 100 | – | > 100 | – | 30 | – | > 100 | 12 | > 100 | > 100 | > 100 | – | – | > 100 | > 100 | 8.33
Cc1ccc2nn(-c3ccc(OC(C)(C)C(=O)O)cc3)nc2c1 | 95 | > 100 | 4.32 | > 100 | 22 | > 100 | > 100 | > 100 | 90 | > 100 | > 100 | > 100 | > 100 | – | – | – | >1.11
CN(C)c1cccc(C(=O)OCCCn2nc3ccccc3n2)c1 | > 100 | > 100 | – | > 100 | > 100 | > 100 | > 100 | > 100 | > 100 | > 100 | > 100 | – | 73 | >1.37 | – | – | –
COc1c(C)c2c(c(O)c1C/C=C(\C)CCC(=O)O)C(=O)OC2 [MYCOPHENOLIC ACID] | – | – | 33.3 | – | 0.6 | > 100 | 2 | – | > 100 | – | > 100 | > 100 | > 100 | – | > 100 | > 100 | –
CC(CC(=O)O)n1nc2c(Cl)c(Cl)c(Cl)c(Cl)c2n1 (stereo not drawn) | 25 | 70 | 3.12 | > 100 | 8 | 33 | > 100 | > 100 | 49 | > 100 | > 100 | – | 25 | – | – | – | 1.43
Cc1ccc(C)c(OCCCC(C)(C)C(=O)O)c1 [GEMFIBROZIL] | > 100 | > 100 | – | – | > 100 | > 100 | – | – | 90 | > 100 | > 100 | > 100 | > 100 | – | – | – | >1.11
CC(C)(CCCOc1ccc(-n2nc3ccc(Cl)cc3n2)cc1)C(=O)O | 15 | 32 | 7.5 | > 100 | 2 | 16 | > 100 | > 100 | > 100 | 51 | > 100 | > 100 | 0.7 | 31.43 | – | – | –
COc1ccc2nn(-c3ccc(OC(C)(C)C(=O)O)cc3)nc2c1 | 90 | ≥ 100 | 4.5 | > 100 | 20 | > 100 | > 100 | > 100 | > 100 | > 100 | > 100 | > 100 | > 100 | – | – | – | –
COc1ccc2nn(-c3ccc(OCCCC(C)(C)C(=O)O)cc3)nc2c1 | 20 | > 100 | – | > 100 | > 100 | 50 | > 100 | > 100 | 44 | 28 | > 100 | > 100 | 2 | 10 | – | – | 2.27
